Test results reported in patent US9827313B2, “Self-assembled pharmaceutical composition for photodynamic therapy” (SNU R&DB FOUNDATION, priority 2014, dated 2017).

Key:
[1] = system: heterogeneous CT26 tumors; assay: In vivo PDT in heterogeneous drug-resistant CT26 tumors; parameters: species or system BALB/c nude mice; details: heterogeneous CT26 tumors after PDT
Method: For histology analysis, tumor tissues from control and treated mice were fixed in 10% neutral buffered formalin and frozen sectioned into 5 micron thick slices, stained with hematoxylin & eosin (H&E) and terminal deoxynucleotidyl transferase dUTP nick-end labeling (TUNEL), and were examined by a digital microscope (Leica QWin) and a confocal laser scanning microscope (LSM 510 Meta; Zeiss, Germany).
For in vitro PDT, HCT116 cells (5×10^4/well) were incubated with the materials described above. Photosensitization experiments were then performed by irradiating the cells with a 670-nm laser source (Institute of Electronics) for 2 min. The power at the level of the cells was fixed at 5 mW/cm^2. Cell viability was assessed using the MTT assay. Absorbance intensity was measured at 595 nm using a microplate reader (Bio-Tek, VT, USA). A parallel set of control cells was also used in which cells incubated with the respective materials were not exposed to laser irradiation. […] The tumor size was measured 3 times a week after the first PDT treatment by using a Vernier caliper, and tumor volumes were calculated from width (a) and length (b) measurements (V=a^2×b/2, where a≦b). All mice were killed when the tumor measured 1,000 mm^3, at the first sign of suffering, or between 15 and 21 day post-transplantation.

HCT116 cancer cells = assay: pH-dependent cellular uptake (flow cytometry, fluorescence imaging); type: cell-based, human; details: HCT116, pH 6.8 vs pH 7.4
Method: HCT116 cells were exposed to PMNs, InS-NPs and Ce6 at different pHs to verify their cellular uptake respectively. The cells were incubated for 2 h, washed, harvested, and re-suspended with DPBS. In vitro cellular uptake was quantified using a flow cytometer (Beckman, San Jose, Calif., USA). For each sample 10,000 cells (gated events) were counted, and free Ce6 fluorescence was detected with logarithmic settings (FL4; λem=670 nm). Cells were counted as positive if their fluorescence (FL4) was higher than that of cells from an untreated cell suspension. Each experiment was analyzed statistically using the CXP Analysis Program.
The tumor cellular uptake of PMNs was monitored at different pH conditions (pH 7.4 and 6.8) using a KODAK In vivo Image Station (Image Station 4000 MM; Kodak, New Haven, Conn., USA) and a flow cytometer (Beckman, San Jose, Calif., USA). HCT116 cells (1×10^5 cells/mL) were incubated with each sample for 2 h in RPMI-1640 medium (pH 7.4 or 6.8, with 1% penicillin-streptomycin) at 37° C. and then analyzed. To ameliorate photobleaching during microscope observation, a drop of anti-fade mounting solution (5% N-propyl gallate, 47.5% glycerol, and 47.5% Tris-HCl, pH 8.4) was added to the cells.

Q: Which results are given for chlorin E6 [Ce6]?
A: damage to tumor tissue cells, microvasculature and fibroblasts (H&E, TUNEL) [1]: no obvious damage; cellular uptake, pH dependence (HCT116 cancer cells): not affected by changes in pH
